Measurements taken from patent US20250127777A1, “DUAL INHIBITION OF MDM2 AND EIF2-ALPHA INDUCES CELL DEATH IN MULTIPLE CANCER CELL TYPES” (The Regents of the University of Colorado, A Body Corporate, priority 2022, published 2025).

How the values were obtained:
TPC1 and HCT116 = assay: Polysome profiling (polysome/monosome ratio); type: cell-based; details: 24 hours
Experimental: TPC1 and HCT116 were plated at 6*104/cm2 on 143 cm2 dishes, cultivated o/n, and treated accordingly. Ten minutes before the harvest cultivation media was supplemented with cycloheximide (CHX) at final concentration of 100 μg/ml. Next, cells were washed twice with ice-cold PBS with 100 μg/ml CHX and lysed in polysome preparation lysis buffer (20 mM HEPES pH 7.4, 15 mM MgCl2, 200 mM NaCl, 1% Triton X-100, 100 μg/ml CHX, 2 mM DTT, and 100U SuperaseIN). Lysates were cleared of debris by centrifugation at 20,000g, 4° C. for 10 minutes. Total nucleic acid content in lysates was measured by absorbance at 260 nm and used for sample concentration normalization. Next, 500 μl of the lysate was loaded on 10-60% sucrose gradients in SW41 tubes in lysis buffer lacking Triton X-100. These gradients were prepared using a BioComp system and chilled to 4° C. before use. Samples were ultracentrifuged at 36,000 rpm for 3 hours and 10 min, at 4° C., then samples were fractionated using a BioComp system, monitoring absorbance at 260 nm while collecting fractions of approximately 0.4 ml each.

ATF3 and ATF4 = assay: Western blot of ATF3 and ATF4 protein; type: cell-based; details: TPC1 cells; nelfinavir alone
Experimental: (§1) Protein samples were prepared with cells washed twice with PBS and lysed in modified Laemmli buffer (Laemmli, 1970) (1% w/v SDS, 10% w/v glycerol, 100 mM Tris pH 7.2, protease (complete Mini, Roche) and phosphatase (PhosSTOP, Roche) inhibitors). Following a brief sonication (2.5W, 5 sec) and heat denaturation (90° C., 5 min), total protein concentration in whole cell lysates was measured by a BCA Protein Assay Kit (Pierce, Thermo Fisher Scientific). 20 μg of protein per sample was resolved by SDS-PAGE and transferred onto a 0.45 μm PVDF membrane (0.2 μm for ATF3 detection). Membranes were incubated in blocking buffer (5% fat-free milk in wash buffer—20 mM Tris pH 7.6, 150 mM NaCl, 0.2% Tween 20) for an hour at RT and o/n at 4° C. with the primary antibody diluted in a fresh blocking buffer. Next day membranes were washed three times for 10 min in the wash buffer, incubated with HRP-conjugated secondary antibody for an hour at RT, and washed again three times in the wash buffer. SuperSignal West Pico Plus Chemiluminescence Substrate (Pierce) was used for detection and digital images were acquired using an ImageQuant LAS 4000 (GE Healthcare Life Sciences).

caspase 3 = assay: Western blot of caspase 3 cleavage; type: cell-based; details: TPC1 cells; 20 μM nelfinavir, alone or with 10 μM nutlin-3a
Experimental: as §1, with “Following” for “Protein samples were prepared with cells washed twice with PBS and lysed in modified Laemmli buffer (Laemmli, 1970) (1% w/v SDS, 10% w/v glycerol, 100 mM Tris pH 7.2, protease (complete Mini, Roche) and phosphatase (PhosSTOP, Roche) inhibitors). Following”

elF2α = assay: Western blot of elF2α phosphorylation; type: cell-based; details: 10 μM nutlin-3a, 25 μM GSK2830371, 20 μM nelfinavir; multiple cell lines
Experimental: as §1

HCT116 xenograft tumors = assay: HCT116 xenograft tumor model; type: in vivo; details: nude mice, 200 mg/kg nelfinavir and/or 200 mg/kg milademetan
Experimental: Athymic nude mice (NU/NU) weighting 20 to 30 grams and being 8-12 weeks of age (Charles River Labs) were housed in cages under standard conditions (22° C., 50% relative humidity, 12-h light/dark cycles) and provided with food and water ad libitum. Next, […] exponentially growing HCT116 cells resuspended in 100 μl Matrigel/PBS (5 mg/ml final) were injected subcutaneously into both flanks. Tumors grew for 10-14 days before treatment initiation. Experimental animals were given 200 mg/kg nelfinavir and/or 200 mg/kg Milademetan (Rain Therapeutics) by oral gavage once daily, 5 days a week. Tested compounds were prepared in a mixture of 2% Klucel (hydroxypropyl cellulose), 0.5% Tween 80, and 35% ethanol. Tumor volumes (v) were estimated daily, 5 days a week using caliper measurements and formula v=(I×w^2)/2, where I represents the greatest length of the tumor and w is tumor width in the perpendicular axis. Average volumes of the right and left flank tumors were used for plotting and calculations. Equal ratios of male and female mice were used in treatment groups (5 males and 5 females). All in vivo experiments were approved by the Institutional Animal Care and Use Committee at the CU-AMC (IACUC protocol 00432).
After indicated treatments, cells were washed with PBS, total RNA was extracted using Trizol substitute (38% Phenol, saturated, pH 4.3, 0.8 M guanidine thiocyanate, 0.4 M ammonium thiocyanate, 0.1 M sodium acetate, pH 5.0, 5% glycerol), and converted to cDNA with High-Capacity cDNA Reverse Transcription Kit (Thermo Fisher). Next, diluted cDNA was used in quantitative PCR reaction using SYBR Select Master Mix for CFX (Thermo Fisher). Detected mRNA levels were normalized to 18s rRNA values.
Tumors fixed in 4% formaldehyde were transferred to 70% ethanol and embedded in paraffin at the Pathology Shared Resource-Research Histology, University of Colorado Anschutz Medical Campus. Three tumors from each experimental group were sectioned, stained with DAPI and Ki67 primary antibody using Akoya Opal technology (Akoya Biosciences), and scanned at six representative regions with Vectra 3.0 (Akoya Biosciences) at the Human Immune Monitoring Shared Resource (University of Colorado Anschutz). Next, InForm image analysis software (Akoya Biosciences) was used for automated identification of nuclei based on the DAPI signal. Ki67 nuclear fluorescence was outputted for all nuclei.

diverse cell types = assay: Annexin V-FITC/PI apoptosis assay, elF2α plus MDM2 inhibition; type: cell-based
Experimental: TPC1, K1, HCT116, MCF7, SJSA, and HEK293FT cells were cultivated in RPMI (TPC1, SJSA), DMEM (K1, MCF7, HEK293FT), and McCoy's (HCT116) media (Gibco, Thermo Fisher Scientific) supplemented with 10% fetal bovine serum (Peak Serum) and 1% antibiotic-antimycotic mixture (Gibco). Cells were plated a day before the treatment and maintained in a humidified atmosphere with 5% of CO2 at 37° C. Both TPC1 and K1 lines were gifts from Dr. Rebecca Schweppe, University of Colorado Anschutz Medical Campus (CU-AMC). Cell line identity has been verified by short tandem repeats profiling at the Cell Technologies Shared Resource, CU-AMC. Colorectal cancer organoid cultures (CRC172) were obtained from the Enteroid Stem Cell Core facility at CU-AMC.
The fraction of apoptotic cells was determined by Annexin V-FITC/PI assay. Briefly, cells harvested by trypsinization were resuspended in Annexin-V binding buffer (10 mM HEPES pH 7.4, 140 mM NaCl, 2.5 mM CaCl2)). Approximately 2*10^5 cells were labeled with Annexin-V-FITC (Invitrogen) and PI (10 μg/ml, Millipore-Sigma) for 15 minutes in the dark before flow cytometric analysis (Accuri C6, Becton Dickinson). […] An aliquot of approximately 5*10^5 cells per sample was mixed with tetramethylrhodamine, ethyl ester, perchlorate (TMRE, Thermo Fisher, 100 nM final concentration) solution, incubated for 10 minutes in the dark, and analyzed by flow cytometer.

Compound: Cc1c(O)cccc1C(=O)N[C@@H](CSc1ccccc1)[C@H](O)CN1C[C@H]2CCCC[C@H]2C[C@H]1C(=O)NC(C)(C)C [nelfinavir]
- polysome/monosome ratio (TPC1 and HCT116): decreased the polysome/monosome ratio
- ATF4 protein stabilization (ATF3 and ATF4): stabilized ATF4
- caspase 3 cleavage / activation (caspase 3): did not induced caspase 3 cleavage
- elF2α phosphorylation (elF2α): induced elF2α phosphorylation
- animal survival (Kaplan Meier; humane endpoint tumor size>1000 mm^3) (HCT116 xenograft tumors; oral gavage): had to be sacrificed at the humane endpoint
- tumor growth (HCT116 xenograft tumors; oral gavage once daily, 5 days a week): Tumors continued to grow
- synergy with small molecule inhibitors of MDM2 to elicit p53-dependent cell death (diverse cell types): synergize with small molecule inhibitors of MDM2 to elicit p53-dependent cell death
